Experimental data published in US20260008775A1, “AZOLE MODULATORS OF CHOLESTEROL BIOSYNTHESIS AND THEIR USE FOR PROMOTING REMYELINATION” (GENENTECH, INC., priority 2022, published 2026).

What was measured:
[1] = biological target: human emopamil binding protein and human 7-dehydrocholesterol reductase (hEBP-DHCR7) (Homo sapiens (Human), UniProt Q15125); assay: hEBP-DHCR7 radioligand binding assay (filter binding, membranes of co-expressing HEK293 cells); conditions: competition with [3H] radioligand, 8 doses 0.06 to 5000 nM, Ki calculated from IC50
human emopamil binding protein and human 7-dehydrocholesterol reductase (hEBP-DHCR7), sequence (Q15125 whole entry): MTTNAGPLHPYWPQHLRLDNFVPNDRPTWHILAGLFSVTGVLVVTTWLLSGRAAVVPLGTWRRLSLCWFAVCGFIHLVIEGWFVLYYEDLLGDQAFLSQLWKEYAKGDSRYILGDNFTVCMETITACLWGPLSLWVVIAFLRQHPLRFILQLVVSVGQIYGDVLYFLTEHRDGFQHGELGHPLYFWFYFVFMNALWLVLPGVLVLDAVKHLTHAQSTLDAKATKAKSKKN
Outline: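 Membranes from HEK293 cells transiently co-expressing hEBP and DHCR7 (10 μg/well) were incubated for 3 h at 22 °C with tritiated spiro-sulfone radioligand (added at 25 nM) and compound at 1 μM or 0.06–5000 nM. Filtration and scintillation counting followed. Inhibition was normalised to 5 μM unlabelled ligand and DMSO, and Ki was derived as IC50/(1+[L]/Kd).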

[2] = test system: zymostenol accumulation (EBP) in EpiSC-derived OPCs; assay: GC/MS-based sterol profiling, zymostenol accumulation in EpiSC-derived OPCs; format: cell-based, mouse; conditions: Mus musculus, 24 h, EpiSC-derived OPCs, 24 hr, 8 doses from 0.15 nM to 333 nM; read-out: Mouse Zymostenol GCMS EC50
Outline: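 Mouse epiblast stem cell-derived OPCs plated at 100,000 cells/well in growth-factor-free N2B27 and treated 24 h. Sterols extracted by modified Folch wash, silylated with BSTFA, and quantified by electron-impact GC/MS against cholesterol-d7 (zymostenol ion 458). Zymostenol normalised to 24 h 100 nM positive-control reference.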

EpiSC-derived OPCs = assay: In vitro phenotypic screening of OPCs, MBP high-content imaging (percentage of oligodendrocytes); format: cell-based, mouse; conditions: Mus musculus, 72 h, 3 days, MBP stain, dose-response 0.5 nM to 1000 nM; read-out: OPC EC50
Outline: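 Mouse epiblast stem cell-derived OPCs were plated without growth factors and given 8-point doses (1000 nM to 0.5 nM, 0.1% DMSO final) for 3 days at 37 °C. MBP/DAPI immunostaining and high-content imaging gave the percentage of oligodendrocytes. EC50 came from a Hill-equation fit.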

Question: `CC(C)n1nc(-c2ccc(C(F)(F)F)nc2)cc1[C@H]1[C@@H]2C[C@@H](N3CCCOCC3)C[C@@H]21` [Compound 47, 4-((1R,3S,5S,6R)-6-(1-Isopropyl-3-(6-(trifluoromethyl)pyridin-3-yl)-1H-pyrazol-5-yl)bicyclo[3.1.0]hexan-3-yl)-1,4-oxazepane] was tested. Which Ki [1] did it give?
Answer: The Ki was 43 nM.

Question: And the EC50 [2]?
Answer: The EC50 was 46 nM.

Question: What about the EC50 (EpiSC-derived OPCs) of the same molecule?
Answer: Its EC50 is 145 nM.

Question: Which results are given for `CC(C)n1nc(-c2cccc(C(F)(F)F)n2)nc1[C@@H]1CCC(N2CCOCC2)C1` (stereo in doubt) [26*, 4-((1S,3R)-3-(1-isopropyl-3-(6-(trifluoromethyl)pyridin-2-yl)-1H-1,2,4-triazol-5-yl)cyclopentyl)morpholine]?
Answer: Ki [1]: 22.6 nM; EC50 [2]: 11.7 nM; EC50 (EpiSC-derived OPCs): 85 nM

Question: How did the Ki [1] turn out when `CC(C)n1nc(-c2ccc(C(F)(F)F)nc2)nc1[C@@H]1CC[C@H](N2CCCOCC2)C1` [Compound 4, 4-((1S,3R)-3-(1-isopropyl-3-(6-(trifluoromethyl)pyridin-3-yl)-1H-1,2,4-triazol-5-yl)cyclopentyl)-1,4-oxazepane] was run?
Answer: The Ki was 8.28 nM.

Question: What about the EC50 [2] of the same molecule?
Answer: The EC50 was 12.3 nM.

Question: And the EC50 (EpiSC-derived OPCs)?
Answer: The EC50 was 38.7 nM.

Question: For `CC(C)n1nc(-c2ccc(C(F)(F)F)nc2)nc1[C@@H]1CC[C@@H](N2CCOCC2)C1` [Compound 104, 4-((1R,3R)-3-(1-Isopropyl-3-(6-(trifluoromethyl)pyridin-3-yl)-1H-1,2,4-triazol-5-yl)cyclopentyl)morpholine], which Ki [1] is on record?
Answer: Its Ki is 19.2 nM.

Question: What about the EC50 [2] of the same molecule?
Answer: Its EC50 is 52 nM.

Question: And the EC50 (EpiSC-derived OPCs)?
Answer: The EC50 was 433 nM.

Question: Which Ki [1] does the source give for `CC(C)n1nc(-c2cccc(C(F)(F)F)n2)nc1[C@H]1[C@@H]2C[C@@H](N3CCOC[C@H]3C)C[C@@H]21` [Compound 72, (R)-4-((1R,3s,5S,6R)-6-(1-Isopropyl-3-(6-(trifluoromethyl)pyridin-2-yl)-1H-1,2,4-triazol-5-yl)bicyclo[3.1.0]hexan-3-yl)-3-methylmorpholine] here?
Answer: Its Ki is 1170 nM.

Question: And the EC50 [2]?
Answer: Its EC50 is 333 nM.

Question: And the EC50 (EpiSC-derived OPCs)?
Answer: Its EC50 is 980 nM.

Question: For `CC(C)n1nc(-c2cc(C(F)(F)F)ccn2)nc1[C@@H]1CC[C@H](N2CCOCC2)C1` (single isomer, unassigned) [28*], which Ki [1] is on record?
Answer: Its Ki is 29.9 nM.

Question: And the EC50 [2]?
Answer: Its EC50 is 8.11 nM.

Question: What about the EC50 (EpiSC-derived OPCs) of the same molecule?
Answer: Its EC50 is 80.4 nM.

Question: How did the Ki [1] turn out when `COCCN1CCN([C@H]2CC[C@@H](c3cc(-c4ccc(C(F)(F)F)nc4)nn3C(C)C)C2)CC1` (single isomer, unassigned) [91*] was run?
Answer: The Ki was 12.8 nM.

Question: And the EC50 [2]?
Answer: Its EC50 is 11.3 nM.

Question: And the EC50 (EpiSC-derived OPCs)?
Answer: The EC50 was 67.6 nM.

Question: For `CC(C)n1nc(-c2ccc(OC(F)(F)F)cc2)cc1[C@H]1[C@@H]2C[C@@H](N3CCCOCC3)C[C@@H]21` [Compound 186*, 4-((1R,3s,5S,6r)-6-(1-isopropyl-3-(4-(trifluoromethoxy)phenyl)-1H-pyrazol-5-yl)bicyclo[3.1.0]hexan-3-yl)-1,4-oxazepane], which Ki [1] is on record?
Answer: The Ki was 20.6 nM.

Question: What about the EC50 [2] of the same molecule?
Answer: Its EC50 is 56.7 nM.

Question: What about the EC50 (EpiSC-derived OPCs) of the same molecule?
Answer: The EC50 was 431 nM.

Question: Which results are given for `CC(C)n1nc(-c2ccnc(C(F)(F)F)c2)cc1[C@H]1[C@@H]2C[C@H](N3CCOCC3)C[C@@H]21` [Compound 172, 4-((1R,3r,5S,6r)-6-(1-Isopropyl-3-(2-(trifluoromethyl)pyridin-4-yl)-1H-pyrazol-5-yl)bicyclo[3.1.0]hexan-3-yl)morpholine]?
Answer: Ki [1]: 13.4 nM; EC50 [2]: 4 nM; EC50 (EpiSC-derived OPCs): 8.27 nM

Question: What does the source list for `Cc1ccccc1-c1cc([C@H]2[C@@H]3C[C@H](N4CCCOCC4)C[C@@H]32)n(C(C)C)n1` (single isomer, unassigned) [Compound 197*]?
Answer: Ki [1]: 9.87 nM; EC50 [2]: 5.46 nM; EC50 (EpiSC-derived OPCs): 10.1 nM

Question: Which results are given for `CC(C)n1nc(-c2cncc(C(F)(F)F)c2)cc1[C@H]1[C@@H]2C[C@@H](N3C[C@H]4C[C@@H]3CO4)C[C@@H]21` (single isomer, unassigned) [35*]?
Answer: Ki [1]: 112 nM; EC50 [2]: 30 nM; EC50 (EpiSC-derived OPCs): 175 nM

Question: Which Ki [1] does the source give for `CC(C)n1nc(-c2cnc(C(F)(F)F)nc2)nc1[C@H]1CC[C@@H](N2CCO[C@H](C)C2)C1` [Compound 144, (R)-4-((1R,3S)-3-(1-isopropyl-3-(2-(trifluoromethyl)pyrimidin-5-yl)-1H-1,2,4-triazol-5-yl)cyclopentyl)-2-methylmorpholine] here?
Answer: Its Ki is 325 nM.

Question: And the EC50 [2]?
Answer: The EC50 was 5.7 nM.

Question: And the EC50 (EpiSC-derived OPCs)?
Answer: Its EC50 is 48 nM.

Question: `CC(C)n1nc(-c2ccc(C(F)(F)F)nc2)nc1[C@H]1CC[C@@H](N2CCCOCC2)C1` [Compound 6, 4-((1R,3S)-3-(1-isopropyl-3-(6-(trifluoromethyl)pyridin-3-yl)-1H-1,2,4-triazol-5-yl)cyclopentyl)-1,4-oxazepane] was tested. Which Ki [1] did it give?
Answer: The Ki was 34.7 nM.

Question: What about the EC50 [2] of the same molecule?
Answer: Its EC50 is 10.5 nM.

Question: What about the EC50 (EpiSC-derived OPCs) of the same molecule?
Answer: Its EC50 is 34.3 nM.

Question: What does the source list for `CC(C)n1nc(-c2ccc(C#N)cc2)cc1[C@H]1[C@@H]2C[C@@H](N3CCCOCC3)C[C@@H]21` [Compound 180*, 4-(5-((1R,3s,5S,6r)-3-(1,4-oxazepan-4-yl)bicyclo[3.1.0]hexan-6-yl)-1-isopropyl-1H-pyrazol-3-yl)benzonitrile]?
Answer: Ki [1]: 30.6 nM; EC50 [2]: 24.5 nM; EC50 (EpiSC-derived OPCs): 124 nM

Question: How did the Ki [1] turn out when `CC(C)n1nc(-c2cncc(C(F)(F)F)c2)cc1[C@H]1CC[C@H](N2CCOCC2)CC1` [2*, 4-((1r,4r)-4-(1-isopropyl-3-(5-(trifluoromethyl)pyridin-3-yl)-1H-pyrazol-5-yl)cyclohexyl)morpholine] was run?
Answer: Its Ki is 40.5 nM.

Question: And the EC50 [2]?
Answer: The EC50 was 17 nM.

Question: What about the EC50 (EpiSC-derived OPCs) of the same molecule?
Answer: The EC50 was 97.5 nM.

Question: `CC(C)n1nc(-c2cccc(C(F)(F)F)c2)cc1[C@H]1[C@@H]2C[C@H](N3CCCOCC3)C[C@@H]21` [Compound 176*, 4-((1R,3s,5S,6r)-6-(1-isopropyl-3-(3-(trifluoromethyl)phenyl)-1H-pyrazol-5-yl)bicyclo[3.1.0]hexan-3-yl)-1,4-oxazepane] was tested. Which Ki [1] did it give?
Answer: The Ki was 8.64 nM.

Question: And the EC50 [2]?
Answer: Its EC50 is 1.71 nM.

Question: And the EC50 (EpiSC-derived OPCs)?
Answer: The EC50 was 1.82 nM.

Question: `CC(C)n1nc(-c2cncc(OC(F)F)c2)nc1[C@H]1[C@@H]2C[C@H](N3CCCOCC3)C[C@@H]21` [Compound 69, 4-((1R,3r,5S,6r)-6-(3-(5-(Difluoromethoxy)pyridin-3-yl)-1-isopropyl-1H-1,2,4-triazol-5-yl)bicyclo[3.1.0]hexan-3-yl)-1,4-oxazepane] was tested. Which Ki [1] did it give?
Answer: Its Ki is 27.9 nM.

Question: And the EC50 [2]?
Answer: The EC50 was 8.19 nM.

Question: What about the EC50 (EpiSC-derived OPCs) of the same molecule?
Answer: Its EC50 is 27.3 nM.

Question: What does the source list for `CC(C)n1nc(-c2cnc(C(F)(F)F)nc2)cc1[C@H]1CC[C@@H](N2CCO[C@H](CF)C2)C1` (single isomer, unassigned) [Compound 133*]?
Answer: Ki [1]: 17.1 nM; EC50 [2]: 21.2 nM; EC50 (EpiSC-derived OPCs): 274 nM

Question: Which results are given for `CC(C)n1nc(-c2cncc(C(F)(F)F)c2)cc1[C@H]1[C@@H]2C[C@@H](N3CCO[C@@H](C)C3)C[C@@H]21` (single isomer, unassigned) [39*]?
Answer: Ki [1]: 771 nM; EC50 [2]: 255 nM; EC50 (EpiSC-derived OPCs): 523 nM
